Calls of active or inactive are those of the source. Rule as the data show it, for most assays here: actives have a measured IC50 and inactives only a lower limit.
Key:
[1] = target: T1, Sentrin-specific protease 7 (Homo sapiens, UniProt Q9BQF6); assay type: functional;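 also: Luminescence-based dose-response confirmation of ultra-high-throughput screening hits, measuring inhibition of SENP7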
T1 sequence (Q9BQF6 whole entry): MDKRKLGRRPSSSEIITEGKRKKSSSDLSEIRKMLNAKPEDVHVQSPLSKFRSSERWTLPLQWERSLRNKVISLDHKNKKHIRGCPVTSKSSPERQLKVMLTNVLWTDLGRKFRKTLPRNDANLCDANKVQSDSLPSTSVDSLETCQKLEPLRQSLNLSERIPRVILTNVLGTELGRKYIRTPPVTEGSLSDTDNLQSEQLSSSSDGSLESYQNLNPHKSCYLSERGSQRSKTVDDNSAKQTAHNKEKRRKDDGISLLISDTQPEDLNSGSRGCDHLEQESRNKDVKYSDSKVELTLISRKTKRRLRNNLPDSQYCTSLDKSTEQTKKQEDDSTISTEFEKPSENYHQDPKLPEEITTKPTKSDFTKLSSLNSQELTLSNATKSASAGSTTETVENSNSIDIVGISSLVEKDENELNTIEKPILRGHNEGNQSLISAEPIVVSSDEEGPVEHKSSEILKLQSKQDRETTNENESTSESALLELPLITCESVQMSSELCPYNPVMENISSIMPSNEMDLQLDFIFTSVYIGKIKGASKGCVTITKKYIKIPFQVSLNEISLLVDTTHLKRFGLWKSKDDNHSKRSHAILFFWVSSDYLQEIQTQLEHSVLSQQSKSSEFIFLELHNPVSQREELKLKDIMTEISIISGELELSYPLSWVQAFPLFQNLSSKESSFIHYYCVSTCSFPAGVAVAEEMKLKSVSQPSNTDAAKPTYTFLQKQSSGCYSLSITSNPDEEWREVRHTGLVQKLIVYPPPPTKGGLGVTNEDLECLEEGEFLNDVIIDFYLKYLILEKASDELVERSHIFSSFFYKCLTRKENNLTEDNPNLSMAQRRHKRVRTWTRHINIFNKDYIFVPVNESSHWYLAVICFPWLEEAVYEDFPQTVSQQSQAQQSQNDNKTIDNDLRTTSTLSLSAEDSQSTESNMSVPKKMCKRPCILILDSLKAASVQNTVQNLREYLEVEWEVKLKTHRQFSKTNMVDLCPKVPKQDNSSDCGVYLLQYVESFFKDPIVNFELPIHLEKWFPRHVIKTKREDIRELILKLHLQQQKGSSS

Caspase-3 = target: T2, Caspase-3 (Homo sapiens, UniProt P42574); assay type: functional;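 also: Dose-response selectivity test against caspase-3 for candidate inhibitors of sentrin-specific proteases (SENPs)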
T2 sequence (P42574 whole entry): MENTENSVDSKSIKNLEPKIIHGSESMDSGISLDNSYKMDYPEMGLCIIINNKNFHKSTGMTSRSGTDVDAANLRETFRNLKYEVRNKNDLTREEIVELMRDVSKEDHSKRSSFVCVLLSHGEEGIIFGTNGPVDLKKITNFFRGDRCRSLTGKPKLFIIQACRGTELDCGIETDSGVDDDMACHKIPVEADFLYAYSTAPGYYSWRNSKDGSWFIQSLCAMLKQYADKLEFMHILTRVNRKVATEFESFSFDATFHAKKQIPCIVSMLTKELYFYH

[2] = target: T3, Histone-lysine N-methyltransferase NSD2 (Homo sapiens, UniProt O96028); assay type: biochemical
T3 sequence (O96028 whole entry): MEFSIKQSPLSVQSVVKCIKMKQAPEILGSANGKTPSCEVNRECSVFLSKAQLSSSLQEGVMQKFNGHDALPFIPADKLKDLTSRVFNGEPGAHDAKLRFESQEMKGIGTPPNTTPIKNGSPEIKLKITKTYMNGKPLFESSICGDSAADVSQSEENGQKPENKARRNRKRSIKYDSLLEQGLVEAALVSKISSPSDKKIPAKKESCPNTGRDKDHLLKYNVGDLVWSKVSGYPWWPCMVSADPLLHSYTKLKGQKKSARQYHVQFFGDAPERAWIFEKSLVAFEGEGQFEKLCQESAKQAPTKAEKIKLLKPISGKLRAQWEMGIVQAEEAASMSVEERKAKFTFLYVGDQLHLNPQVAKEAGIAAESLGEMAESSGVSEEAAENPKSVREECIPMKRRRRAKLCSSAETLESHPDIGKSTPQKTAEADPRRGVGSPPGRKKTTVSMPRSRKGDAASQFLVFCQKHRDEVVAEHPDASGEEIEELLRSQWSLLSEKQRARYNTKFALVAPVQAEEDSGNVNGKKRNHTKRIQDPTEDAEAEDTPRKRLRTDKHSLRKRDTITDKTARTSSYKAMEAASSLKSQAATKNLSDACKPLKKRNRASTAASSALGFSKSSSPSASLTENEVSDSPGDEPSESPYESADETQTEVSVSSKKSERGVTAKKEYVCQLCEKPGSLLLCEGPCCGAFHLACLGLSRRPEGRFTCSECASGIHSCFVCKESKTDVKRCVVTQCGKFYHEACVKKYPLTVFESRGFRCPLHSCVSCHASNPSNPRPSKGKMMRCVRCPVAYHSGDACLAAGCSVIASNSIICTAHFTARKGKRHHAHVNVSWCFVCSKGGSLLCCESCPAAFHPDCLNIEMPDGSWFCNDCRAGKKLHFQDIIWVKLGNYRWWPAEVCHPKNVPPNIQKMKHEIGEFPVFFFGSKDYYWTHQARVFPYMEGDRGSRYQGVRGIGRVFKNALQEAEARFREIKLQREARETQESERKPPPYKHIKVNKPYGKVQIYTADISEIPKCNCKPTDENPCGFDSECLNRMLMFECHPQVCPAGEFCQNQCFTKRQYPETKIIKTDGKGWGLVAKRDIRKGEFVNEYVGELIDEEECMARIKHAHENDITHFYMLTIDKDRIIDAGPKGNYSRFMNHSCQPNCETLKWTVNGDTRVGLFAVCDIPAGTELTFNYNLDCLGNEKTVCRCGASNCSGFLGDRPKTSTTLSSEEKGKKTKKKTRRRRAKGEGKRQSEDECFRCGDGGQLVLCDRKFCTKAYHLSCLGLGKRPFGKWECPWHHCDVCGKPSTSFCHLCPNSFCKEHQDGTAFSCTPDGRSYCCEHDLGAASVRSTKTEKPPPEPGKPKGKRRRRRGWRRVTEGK

SMILES | IC50 [1] | IC50 (Caspase-3) | AC50 [2]
CCOC(=O)c1c(NS(=O)(=O)c2ccccc2)n(CCCOC)c2nc3ccccc3nc12 | 1.02 µM (active) | 10 µM (active) | 12.1 µM (active)
O=C(COC(=O)c1ccc([N+](=O)[O-])s1)NCCc1ccccc1 | 7.56 µM (active) | 9.7 µM (active) | > 20 µM (inactive)
